Experimental data reported in US11795510B2, “Identification of epigenomic reprogramming in cancer and uses thereof” (The Johns Hopkins University, priority 2016, dated 2023).
Entries after “also recorded” stand apart in the source; their conditions may differ.

Columns and labels:
Assay type in all cases: cell-based, human
A38Lg compared to A38Per = experiment: MTT cell viability assay
Description: (§1) Tissue samples and cell lines were previously collected from PDAC patients by rapid autopsy, sequenced-validated, and monitored for mycoplasma as previously described. Low passage (2-17) rapid autopsy cell lines were cultured at 37° C. in DMEM with 10% fetal bovine serum (FBS, Gibco). For MTT assays, 15,000 cells/well were plated into 96 well plates in triplicate, treated 12 hours later, and assayed after 24 hr (glucose responses) or 6 days (chemotherapy) with CellTiter96 (Promega). For glucose response assays, nutrient-deplete DMEM (no glucose, glutamine, pyruvate, or serum) was used with addition of glucose as indicated. For glucose-dependent oxidative stress analysis, cells plated in triplicate and grown to 80% confluence followed by incubation in nutrient-deplete DMEM containing 10% dialyzed FBS with or without 10 mM glucose and 1 mM H2O2 for 24 hours. Cells were then washed with PBS, trypsinized, and viable cells counted with a hemocytometer. Glucose uptake and lactate secretion were measured with a YSI 7100 Bioanalyzer as described in the supplementary methods. For ^13C-1,2 glucose tracing and steady state metabolite profiling, the Q Exactive MS (QE-MS; Thermo Scientific) coupled to liquid chromatography (LC Ultimate 3000 UHPLC) was used for metabolite separation and detection as previously described. Detailed conditions are provided in the supplementary methods.

normal HPDE cells = experiment: Glucose-dependent oxidative stress analysis (viable cell counts), HPDE; settings: 1 mM H2O2, 24h, with or without 10 mM glucose
Description: as §1

[1] = tested on: local-regional PDAC samples; experiment: Glucose-dependent oxidative stress analysis (viable cell counts), local-regional PDAC; settings: 1 mM H2O2, 24h, with or without 10 mM glucose
Description: as §1

[2] = tested on: distant metastatic subclones; experiment: Glucose-dependent oxidative stress analysis (viable cell counts), distant metastatic subclones; settings: 1 mM H2O2, 24h, glucose not present in the media
Description: as §1

[3] = tested on: global chromatin modifications in peritoneal subclone (A38Per), normal cells (HPDE, fibroblast) and local-regional PDACs; experiment: Western blots of histone modifications, peritoneal subclone, normal cells and local-regional PDACs; settings: peritoneal subclone
Description: Histones were acid extracted as described and western blots performed on 3.5 ug histones, which were checked by Ponceau stains prior to western blot to ensure equal loading. Densitometry was performed with ImageJ software. RNA was extracted with Trizol reagent (Life Technologies) and isopropanol precipitated. Genomic DNA was purified with MasterPure DNA extraction reagents (Epicenter). Immunohistochemistry, H&E staining, and immunofluorescence on formalin-fixed, paraffin-embedded (FFPE) tissue microarray sections (TMAs) were performed according to standard procedures.
RNAi experiments were performed with siRNA transfections (Oligofectamine, Life Technologies) using negative control siRNA (Sigma, SIC001) and pre-designed siRNA oligonucleotides against indicated genes in parallel (Sigma, PGD: SASI_Hs02 00334150, CDH2: SASI_Hs01_00153995, TOP2B: SASI_Hs02_00311874). siRNAs against mutant KRAS^G12V (CUACGCCAACAGCUCCAAC) (SEQ ID NO:1) were custom designed. Cells were incubated with siRNAs for 4 days after transfection and harvested. For drug treatments in 2-D, cells were grown to 70-80% confluency and treated for 3 days with 250 uM 6AN or DMSO negative control.

SMILES | cell viability (MTT) under H2O2-mediated oxidative stress (A38Lg compared to A38Per) | normalized cell counts after H2O2 (normal HPDE cells) | normalized cell counts after H2O2 [1] | normalized cell counts after H2O2 [2] | induction of loss of methylation or gain of acetylation (reprogrammed histone modifications) by chemotherapy [3] | cell viability (MTT) under gemcitabine (A38Lg compared to A38Per; assayed after 6 days)
OO [H2O2] | highly resistant; also recorded: remarkably resistant | sensitive to H2O2 under either glucose condition | resistant to H2O2 irrespective of glucose availability | sensitive to H2O2 when glucose was not present |  | 
Nc1ccn([C@@H]2O[C@H](CO)[C@@H](O)C2(F)F)c(=O)n1 [gemcitabine, Gemcitabine] |  |  |  |  | did not induce | highly resistant; also recorded: completely resistant
